From US20260284074A1, “ENT1 Inhibitors in Combination with Checkpoint Inhibitors” (iTeos Belgium SA, priority 2023, published 2026)
pIC50: −log10 of the molar value. Each block holds one molecule with its values, some of them ahead of it.

Key:
[1] = Dynamic vapor sorption (DVS); assay type: physicochemical
Procedure: (§1) METHOD A: In Example 5, approximately 5-15 mg of sample was placed into a mesh vapor sorption balance pan and loaded into either a DVS Intrinsic or DVS Advantage dynamic vapor sorption balance by Surface Measurement Systems. The sample was subjected to a ramping profile from 40-90% relative humidity (RH) at 10% increments, maintaining the sample at each step until a stable weight had been achieved (dm/dt 0.004%, minimum step length 30 minutes, maximum step length 500 minutes) at 25° C. After completion of the sorption cycle, the sample was dried using the same procedure to 0% RH and then a second sorption cycle back to 40% RH was carried out. Two cycles were performed. The weight change during the sorption/desorption cycles were plotted, allowing the hygroscopic nature of the sample to be determined. XRPD analysis was then carried out on the residual solid.
as §1, with “B:” for “A:”, “1,” for “5,”, “10-20” for “5-15”, “determined.” for “determined. XRPD analysis was then carried out on the residual solid.”

human T cells [2] = assay: [3H]adenosine uptake in activated human T cells; assay type: cell-based
From the text: Applicant observed that activated human T cells took up [3H]adenosine, and this uptake was reduced in the presence of the selective ENT1 inhibitor dilazep, confirming that ENT1 is the dominant transporter involved in adenosine uptake in T cells.
Human T cells were activated for 2 days in the presence of Compound 1 or dilazep. The cells were then washed and used in a [^3H]adenosine uptake experiment. […] (See FIG. 27A.)

human T cells [3] = assay: T cell proliferation by CFSE dilution in the presence of ATP; assay type: cell-based; details: human T cells activated in presence of 100 μM ATP, CFSE dilution, read-out: IC50, restoration of T cell proliferation
Procedure: Human T cells were activated in the presence of 100 μM ATP and dilazep or Compound 1 and proliferation was monitored by CarboxyFluoroscein Succinimidyl Ester (CFSE) dilution. […] (See FIG. 27B.)

MDA-MB-231 cells = assay: MDA-MB-231 subcutaneous tumor model in humanized NCG mice; assay type: in vivo, mouse; details: day 51; Compound 1 30 mg/kg i.p. twice a day; nivolumab 10 mg/kg i.p. every 5 days
Procedure: The anti-tumor therapeutic efficacy of Compound 1 monotherapy, nivolumab monotherapy, and Compound 1-nivolumab combination therapy was assessed in ‘humanized’ mice with subcutaneous tumors resulting from the subcutaneous injection of MDA-MB-231 cells, a human triple-negative breast cancer cell line.
Human cell line xenograft experiments were performed at Transcure (France) and all associated animal procedures were reviewed and approved by the local ethics committee. The experiment was carried out with the NOD-Prkdc^em26cd52Il2rg^em26cd22/NjuCrl immunodeficient mouse strain (NCG from Charles River Laboratories, Wilmington, MA, USA). Four-week-old immunodeficient NCG mice were engrafted with cord-blood-derived human CD34^+ hematopoietic stem and progenitor cells (French Blood Institute, Paris, France) 2 days after chemical myeloablative treatment. Fourteen weeks after cell injection, engraftment level was monitored with the analysis of human CD45^+ cells among total blood leukocytes by flow cytometry (Attune, Life Technologies/Thermo Fisher Scientific, Waltham, MA, USA). […]
All the animals used were monitored daily, checking their clinical signs of distress and body weight and tumors were measured three times a week using an electronic caliper. The tumor volume was determined by applying the formula Length×(Width)^2×0.5. […]

Molecule: COc1cc(C(=O)O[C@@H]2CCCOc3cc(cc(OC)c3OC)C(=O)NCCCN3CCCN(CC2)CC3)cc(OC)c1OC
Water uptake (DVS) ([1]; at 80% RH, second sorption cycle, after likely formation of amorphous material): 3.3%
Water uptake (DVS) ([1]; between 40-80% RH, first sorption cycle): 0.9%
Hygroscopicity (DVS) ([1]; first sorption cycle, 25° C.): slightly hygroscopic
Water uptake (DVS) ([1]; further uptake between 80-90% RH, first sorption cycle): 3.8%

Molecule: COc1cc(C(=O)O[C@@H]2CCCOc3cc(cc(OC)c3OC)C(=O)NCCCN3CCCN(CC2)CC3)cc(OC)c1OC (single isomer, unassigned)
Moisture uptake (DVS) ([1]; RH raised to 80% from 10%, 25° C.): 1.7%
Moisture uptake (DVS) ([1]; between 0 and 10% RH, 25° C.): about 6.3%

pIC50 (human T cells [2]; Homo sapiens, T-cell, T cells activated 2 days in presence of compound, washed, [3H]adenosine uptake, read-out: IC50, inhibition of uptake of adenosine into human T cells): 8.92
Molecule: COc1cc(C(=O)OCCCN2CCCN(CCCOC(=O)c3cc(OC)c(OC)c(OC)c3)CC2)cc(OC)c1OC [dilazep]
[3H]adenosine uptake by activated human T cells (human T cells [2]; in the presence of the inhibitor): reduced
pIC50 (human T cells [3]): 8.62

Molecule: nivolumab [anti-PD-1, reference compound]
Tumor volume compared with vehicle group (MDA-MB-231 cells): not statistically significantly different
